In article PMC5913971, “A Novel Piperazine-Based Drug Lead for Cryptosporidiosis from the Medicines for Malaria Venture Open-Access Malaria Box” (Antimicrobial Agents and Chemotherapy, 2018):

System: C. parvum Iowa isolate
Experiment: Immunofluorescence assay for C. parvum growth inhibition in HCT-8 cells
Assay type: cell-based, Cryptosporidium parvum
Conditions: Cryptosporidium parvum, HCT-8, read-out: C. parvum EC50 (95% CI)
Protocol: Inhibition of C. parvum growth was measured as described previously ([20]). Oocysts were excysted by treatment with 10 mM hydrochloric acid (10 min at 37°C), followed by exposure to 2 mM sodium taurocholate (Sigma-Aldrich) in PBS for 10 min at 16°C. Excysted oocysts were then added to >95% confluent HCT-8 cell monolayers in 384-well plates at a concentration of 5,500 Iowa isolate oocysts per well. For C. parvum field isolates, the inoculum required to yield an infection level similar to that produced by 5,500 Iowa isolate oocysts per well was determined and was used for subsequent assays of parasite inhibition. Compounds were added just before or 3 h after infection, and assay plates were incubated for 48 h postinfection at 37°C under 5% CO2. Wells were then washed three times with PBS containing 111 mM D-galactose, fixed with 4% paraformaldehyde in PBS for 15 min at room temperature, permeabilized with 0.25% Triton X-100 for 10 min at 37°C, washed three times with PBS with 0.1% Tween 20, and blocked with 4% bovine serum albumin (BSA) in PBS for 2 h at 37°C or 4°C overnight. Parasitophorous vacuoles were stained with 1.33 μg/ml of fluorescein-labeled Vicia villosa lectin (Vector Laboratories) diluted in 1% BSA in PBS with 0.1% Tween 20 for 1 h at 37°C, followed by the addition of Hoechst 33258 (AnaSpec) at a final concentration of 0.09 mM diluted in water for another 15 min at 37°C. Wells were then washed five times with PBS containing 0.1% Tween 20. A Nikon Eclipse TE2000 epifluorescence microscope with an automated stage was programmed using NIS-Elements Advanced Research software (Nikon, USA) to focus on the center of each well and take a 3-by-3 composite image using an EXi Blue fluorescence microscopy camera (QImaging, Canada) with a 20× objective (numerical aperture, 0.45). Nucleus and parasite images were exported separately as .tif files and were analyzed using macros developed on the ImageJ platform (National Institutes of Health) ([20]). The only modification from the published macro used to count parasites was that the lower size threshold for parasites was decreased from 16.5 to 4 pixels (1 pixel = 0.65 μm). Graphs were plotted, and half-maximal effective concentration (EC50) and 90% effective concentration (EC90) values were calculated using GraphPad Prism software, version 6.01. For every C. parvum field isolate experiment, a dose-response experiment against the C. parvum Iowa isolate was performed simultaneously as a reference.

`c1cc2nncn2nc1N1CCNCC1` [Compound D-53, N1CCN(CC1)c1ccc2n(n1)cnn2] showed an EC50 of over 25 µM.

Same assay, conditions: Cryptosporidium parvum, HCT-8; Table S3, SAR of MMV665917; read-out: C. parvum EC50 (95% CI)

`CN1CCN(c2ccc3nnc(C(F)(F)F)n3n2)CC1` [Compound D-2, CN1CCN(CC1)c1ccc2n(n1)c(nn2)C(F)(F)F] and `CC(=O)N1CCN(c2ccc3nnc(C(F)(F)F)n3n2)CC1` [Compound D-12, CC(=O)N1CCN(CC1)c1ccc2n(n1)c(nn2)C(F)(F)F] cannot be ordered by EC50: over 25 µM for the first, over 25 µM for the second.

`FC(F)(F)c1nnc2ccc(N3CCN(Cc4ccccc4)CC3)nn12` [Compound D-3, FC(c1nnc2n1nc(cc2)N1CCN(CC1)Cc1ccccc1)(F)F] and `Cc1nnc2ccc(N3CCN(C(=O)NCc4ccccc4)CC3)nn12` [Compound D-21, O=C(N1CCN(CC1)c1ccc2n(n1)c(C)nn2)NCc1ccccc1] cannot be ordered by EC50: over 25 µM for the first, over 25 µM for the second.

`CCOC(=O)N1CCN(c2ccc3nnc(C(F)(F)F)n3n2)CC1` [Compound D-4, CCOC(=O)N1CCN(CC1)c1ccc2n(n1)c(nn2)C(F)(F)F] and `Cc1nnc2ccc(N3CCN(C(=O)OC(C)(C)C)CC3)nn12` [Compound D-60, O=C(N1CCN(CC1)c1ccc2n(n1)c(C)nn2)OC(C)(C)C] cannot be ordered by EC50: over 25 µM for the first, over 25 µM for the second.

`c1ccc(N2CCN(c3ccc4nncn4n3)CC2)cc1` [Compound D-9, c1ccc(cc1)N1CCN(CC1)c1ccc2n(n1)cnn2] and `COc1ccc(N2CCN(c3ccc4nncn4n3)CC2)cc1` [Compound D-31, COc1ccc(cc1)N1CCN(CC1)c1ccc2n(n1)cnn2] cannot be ordered by EC50: over 25 µM for the first, over 25 µM for the second.

Compared with `O=C(Nc1ccccc1)N1CCN(c2ccc3nncn3n2)CC1` [Compound D-18, O=C(N1CCN(CC1)c1ccc2n(n1)cnn2)Nc1ccccc1], `O=C(Nc1cccc(Cl)c1)N1CCN(c2ccc3nncn3n2)CC1` [Compound D-77, Clc1cccc(c1)NC(=O)N2CCN(CC2)c3ccc4nncn4n3] is lower in EC50: over 25 µM for the first, about 23.7 µM for the second. The second is the more potent here.

Going from `O=C(Nc1ccc2c(c1)OCO2)N1CCN(c2ccc3nncn3n2)CC1` [Compound D-19, O=C(N1CCN(CC1)c1ccc2n(n1)cnn2)Nc1ccc2c(c1)OCO2] to `O=C(Nc1ccc(Cl)c(Cl)c1)N1CCN(c2ccc3nncn3n2)CC1` [Compound D-28, O=C(N1CCN(CC1)c1ccc2n(n1)cnn2)Nc1ccc(c(c1)Cl)Cl], the EC50 falls from over 25 µM to 0.55 µM. The second is the more potent here.

`O=C(NC1CCCCC1)N1CCN(c2ccc3nncn3n2)CC1` [Compound D-20, O=C(N1CCN(CC1)c1ccc2n(n1)cnn2)NC1CCCCC1] and `O=C(NC1CCCCC1)N1CCN(c2ccc3nnc(C4CC4)n3n2)CC1` [Compound D-22, O=C(N1CCN(CC1)c1ccc2n(n1)c(nn2)C1CC1)NC1CCCCC1] cannot be ordered by EC50: over 25 µM for the first, over 25 µM for the second.

`O=S(=O)(c1ccc(Cl)cc1)N1CCN(c2ccc3nncn3n2)CC1` [Compound D-23, Clc1ccc(cc1)S(=O)(=O)N1CCN(CC1)c1ccc2n(n1)cnn2] and `O=C(c1ccc(Cl)cc1)N1CCN(c2ccc3nncn3n2)CC1` [Compound D-46, Clc1ccc(cc1)C(=O)N1CCN(CC1)c1ccc2n(n1)cnn2] cannot be ordered by EC50: over 25 µM for the first, over 25 µM for the second.

`O=C(COc1ccc(F)cc1)N1CCN(c2ccc3nncn3n2)CC1` [Compound D-26, Fc1ccc(cc1)OCC(=O)N1CCN(CC1)c1ccc2n(n1)cnn2] and `O=C(COc1cccc(Cl)c1)N1CCN(c2ccc3nncn3n2)CC1` [Compound D-41, Clc1cccc(c1)OCC(=O)N1CCN(CC1)c1ccc2n(n1)cnn2] are within 1.5-fold of each other in EC50: 20 µM for the first, 18 µM for the second.

Compared with `O=C(Nc1cccc(C(F)(F)F)c1)N1CCN(c2ccc3nncn3n2)CC1` [Compound D-27, O=C(N1CCN(CC1)c1ccc2n(n1)cnn2)Nc1cccc(c1)C(F)(F)F], `O=C(Nc1ccc(C(F)(F)F)cc1)N1CCN(c2ccc3nncn3n2)CC1` [Compound D-75, FC(F)(F)c1ccc(cc1)NC(=O)N2CCN(CC2)c3ccc4nncn4n3] is 1.5-fold lower in EC50: 17 µM for the first, 11 µM for the second.

`O=C(c1ccc(F)cc1)N1CCN(c2ccc3nnc(C4CC4)n3n2)CC1` [Compound D-29, Fc1ccc(cc1)C(=O)N1CCN(CC1)c1ccc2n(n1)c(nn2)C1CC1] and `O=C(Nc1ccc(F)c(Cl)c1)N1CCN(c2ccc3nnc(C4CC4)n3n2)CC1` [Compound D-43, O=C(N1CCN(CC1)c1ccc2n(n1)c(nn2)C1CC1)Nc1ccc(c(c1)Cl)F] cannot be ordered by EC50: over 25 µM for the first, over 25 µM for the second.

Compared with `O=C(Nc1cc(Cl)ccc1Cl)N1CCN(c2ccc3nncn3n2)CC1` [Compound D-32, Clc1ccc(c(c1)NC(=O)N1CCN(CC1)c1ccc2n(n1)cnn2)Cl], `O=C(c1cc(Cl)ccc1Cl)N1CCN(c2ccc3nncn3n2)CC1` [Compound D-47, Clc1ccc(c(c1)C(=O)N1CCN(CC1)c1ccc2n(n1)cnn2)Cl] is higher in EC50: about 24.8 µM for the first, over 25 µM for the second.

`CCOc1ccccc1NC(=O)N1CCN(c2ccc3nncn3n2)CC1` [Compound D-33, CCOc1ccccc1NC(=O)N1CCN(CC1)c1ccc2n(n1)cnn2] and `COc1ccc(C)cc1NC(=O)N1CCN(c2ccc3nncn3n2)CC1` [Compound D-34, COc1ccc(cc1NC(=O)N1CCN(CC1)c1ccc2n(n1)cnn2)C] cannot be ordered by EC50: over 25 µM for the first, over 25 µM for the second.

`COc1cc(NC(=O)N2CCN(c3ccc4nncn4n3)CC2)cc(OC)c1` [Compound D-35, COc1cc(cc(c1)OC)NC(=O)N1CCN(CC1)c1ccc2n(n1)cnn2] and `COc1ccc(OC)c(NC(=O)N2CCN(c3ccc4nncn4n3)CC2)c1` [Compound D-40, COc1ccc(cc1NC(=O)N1CCN(CC1)c1ccc2n(n1)cnn2)OC] cannot be ordered by EC50: over 25 µM for the first, over 25 µM for the second.

`CC(C)c1ccc(NC(=O)N2CCN(c3ccc4nncn4n3)CC2)cc1` [Compound D-36, O=C(N1CCN(CC1)c1ccc2n(n1)cnn2)Nc1ccc(cc1)C(C)C] and `O=C(Nc1ccc(OC(F)(F)F)cc1)N1CCN(c2ccc3nncn3n2)CC1` [Compound D-76, FC(F)(F)Oc1ccc(cc1)NC(=O)N2CCN(CC2)c3ccc4nncn4n3] cannot be ordered by EC50: over 25 µM for the first, over 25 µM for the second.

Going from `O=C(Nc1cc(F)ccc1F)N1CCN(c2ccc3nncn3n2)CC1` [Compound D-37, Fc1ccc(c(c1)NC(=O)N1CCN(CC1)c1ccc2n(n1)cnn2)F] to `O=C(Nc1ccc(F)c(Cl)c1)N1CCN(c2ccc3nncn3n2)CC1` [Compound D-38, O=C(N1CCN(CC1)c1ccc2n(n1)cnn2)Nc1ccc(c(c1)Cl)F], the EC50 falls from over 25 µM to 12 µM. The second is the more potent here.

`O=C(Cc1ccccc1Cl)N1CCN(c2ccc3nncn3n2)CC1` [Compound D-42, O=C(N1CCN(CC1)c1ccc2n(n1)cnn2)Cc1ccccc1Cl] and `O=C(Cc1noc2ccccc12)N1CCN(c2ccc3nncn3n2)CC1` [Compound D-49, O=C(N1CCN(CC1)c1ccc2n(n1)cnn2)Cc1noc2c1cccc2] cannot be ordered by EC50: over 25 µM for the first, over 25 µM for the second.

Compared with `CN(C)S(=O)(=O)c1ccc(C(=O)N2CCN(c3ccc4nncn4n3)CC2)cc1` [Compound D-44, O=C(c1ccc(cc1)S(=O)(=O)N(C)C)N1CCN(CC1)c1ccc2n(n1)cnn2], `NS(=O)(=O)c1ccc(C(=O)N2CCN(c3ccc4nncn4n3)CC2)cc1` [Compound D-45, O=C(c1ccc(cc1)S(=O)(=O)N)N1CCN(CC1)c1ccc2n(n1)cnn2] is higher in EC50: 7.1 µM for the first, over 25 µM for the second. The first is the more potent here.

Compared with `O=C(c1ccc(S(=O)(=O)N2CCCC2)cc1)N1CCN(c2ccc3nncn3n2)CC1` [Compound D-48, O=C(c1ccc(cc1)S(=O)(=O)N1CCCC1)N1CCN(CC1)c1ccc2n(n1)cnn2], `O=S(=O)(c1ccc(Oc2ccccc2)cc1)N1CCN(c2ccc3nncn3n2)CC1` [Compound D-79, O=S(N1CCN(C2=NN3C(C=C2)=NN=C3)CC1)(C4=CC=C(OC5=CC=CC=C5)C=C4)=O] is lower in EC50: over 25 µM for the first, 12 µM for the second.

Compared with `O=C(COc1ccc(Cl)cc1Cl)N1CCN(c2ccc3nncn3n2)CC1` [Compound D-50, Clc1ccc(c(c1)Cl)OCC(=O)N1CCN(CC1)c1ccc2n(n1)cnn2], `CC(Oc1ccc(Cl)cc1Cl)C(=O)N1CCN(c2ccc3nncn3n2)CC1` [Compound D-51, Clc1ccc(c(c1)Cl)OC(C(=O)N1CCN(CC1)c1ccc2n(n1)cnn2)C] is higher in EC50: 16 µM for the first, over 25 µM for the second.

`O=C(Nc1ccc(Cl)c(Cl)c1)N1CCN(c2ccccc2)CC1` [Compound D-74, O=C(Nc1ccc(Cl)c(Cl)c1)N2CCN(CC2)c3ccccc3] and `O=C(Nc1ccc(Cl)c(Cl)c1)N1CCN(c2nc3ccccc3[nH]2)CC1` [Compound D-80, O=C(N1CCN(C2=NC3=C(C=CC=C3)N2)CC1)NC4=CC=C(Cl)C(Cl)=C4] are within 1.5-fold of each other in EC50: 20 µM for the first, 17 µM for the second.

With `O=C(Nc1ccc(Cl)c(Cl)c1)N1CCN(CCn2cccn2)CC1` [Compound D-81, O=C(N1CCN(CCN2N=CC=C2)CC1)NC3=CC=C(Cl)C(Cl)=C3] the EC50 was over 25 µM.

Same assay, conditions: Cryptosporidium parvum; inside HCT-8 cells, 48 h incubation; Fig. 1; read-out: EC50, anti-C. parvum dose response

`O=C(COc1cccc(Cl)c1)N1CCN(c2ccc3nncn3n2)CC1` [Compound D-41, Clc1cccc(c1)OCC(=O)N1CCN(CC1)c1ccc2n(n1)cnn2] was tested, and the EC50 was about 18 µM.

Same assay, conditions: Table S3, SAR of MMV665917; read-out: C. parvum EC50 (95% CI)

For `O=C(Nc1ccc(Cl)cc1)N1CCN(c2ccc3nncn3n2)CC1` [Compound D-78, O=C(N1CCN(C2=NN3C(C=C2)=NN=C3)CC1)NC5=CC=C(Cl)C=C5], the EC50 was over 25 µM.
